Results as given in ChEMBL document CHEMBL4052726, “Design, synthesis, and biological evaluation of aryl N-methoxyamide derivatives as GPR119 agonists” (Bioorg Med Chem Lett, 2017).
Activity calls are given as the source filed them. No cut-off for these calls is given here.

What was measured:
[1] = biological target: T1, Glucose-dependent insulinotropic receptor (Homo sapiens) (UniProt Q8TDV5); assay: Activation of human GPR119 expressed in CHOK1 cells harboring CRE-luciferase at 1 uM after 6 hrs by luciferase reporter gene assay relative to GSK1292263; type: functional, cell-based
T1 sequence (whole entry): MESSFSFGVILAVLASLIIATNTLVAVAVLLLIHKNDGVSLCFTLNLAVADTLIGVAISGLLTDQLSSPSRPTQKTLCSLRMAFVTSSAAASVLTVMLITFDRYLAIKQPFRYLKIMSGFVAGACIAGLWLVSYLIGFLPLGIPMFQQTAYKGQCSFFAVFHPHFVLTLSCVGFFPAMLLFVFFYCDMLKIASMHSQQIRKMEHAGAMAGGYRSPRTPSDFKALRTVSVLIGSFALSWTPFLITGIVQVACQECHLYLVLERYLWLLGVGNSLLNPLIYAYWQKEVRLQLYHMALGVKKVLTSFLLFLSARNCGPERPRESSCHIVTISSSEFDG

[2] = biological target: T2, Glucose-dependent insulinotropic receptor (Homo sapiens, UniProt Q8TDV5); assay: Agonist activity at human GPR119 expressed in CHOK1 cells harboring CRE-luciferase after 6 hrs by luciferase reporter gene assay; type: functional, cell-based
T2 sequence (Q8TDV5 whole entry): T1 sequence (whole entry)

[3] = biological target: T1, Glucose-dependent insulinotropic receptor (Homo sapiens); assay: Agonist activity at GPR119 in human NCI-H716 cells assessed as increase in forskolin-induced GLP-1 secretion by ELISA; type: cell-based
Mus musculus = assay: Decrease in plasma glucose AUC in C57BL/6 mouse at 30 to 50 mg/kg administered orally followed by glucose challenge after 30 mins by OGTT; type: functional, organism-based

Row | Compound | Activity [1] [%] | EC50 [2] [nM] | Activity [3] | Activity (Mus musculus)
1 | CCc1cnc(N2CCC(N(C)c3ncnc4c(-c5ccc(C(=O)NOCc6ccccc6)cc5)csc34)CC2)nc1 | 41 |  |  | 
2 | CN(c1ncnc2c(-c3ccc(C(=O)N4CCCCO4)cc3)csc12)C1CCN(C(=O)OC(C)(C)C)CC1 | 66 |  |  | 
3 | CON(C)C(=O)c1ccc(-c2csc3c(OC4CCN(C(=O)OC(C)(C)C)CC4)ncnc23)cc1 | 100 | 64 |  | 
4 | CON(C)C(=O)c1ccc(-c2csc3c(N(C)C4CCN(C(=O)OC(C)C)CC4)ncnc23)cc1F | 90 | 67 |  | 
5 | CON(C)C(=O)c1ccc(-c2csc3c(N(C)C4CCN(C(=O)OC(C)(C)C)CC4)ncnc23)cc1 | 105 | 98 |  | 
6 | CCc1cnc(N2CCC(Oc3ncnc4c(-c5ccc(C(=O)N(C)OC)c(F)c5)csc34)CC2)nc1 | 100 | 105 |  | 
7 | CN(c1ncnc2c(-c3ccc(C(=O)NOCc4ccccc4)cc3)csc12)C1CCN(C(=O)OC(C)(C)C)CC1 | 81 | 83 |  | 
8 | CCONC(=O)c1ccc(-c2csc3c(N(C)C4CCN(C(=O)OC(C)(C)C)CC4)ncnc23)cc1 | 73 |  |  | 
9 | CON(C)C(=O)c1ccc(-c2ccc(OCC3CCN(C(=O)OC(C)(C)C)CC3)cn2)cc1F | 114 | 73 |  | 
10 | CONC(=O)c1ccc(-c2csc3c(N(C)C4CCN(C(=O)OC(C)(C)C)CC4)ncnc23)cc1 | 82 |  |  | 
11 | CON(C)C(=O)c1ccc(-c2csc3c(N(C)C4CCN(C(=O)OC(C)C)CC4)ncnc23)cc1 | 82 | 156 |  | 
12 | CON(C)C(=O)c1ccc(-c2ccc(OCC3CCN(C(=O)OC(C)C)CC3)cn2)cc1 | 80 | 155 |  | 
13 | CCc1cnc(N2CCC(N(C)c3ncnc4c(-c5ccc(C(=O)N(C)OC)c(F)c5)csc34)CC2)nc1 | 81 |  |  | 
14 | CC(C)(C)OC(=O)N1CCC(COc2ccc(-c3ccc(C(=O)N4CCCCO4)cc3)nc2)CC1 | 73 | 321 |  | 
15 | CCc1cnc(N2CCC(N(C)c3ncnc4c(-c5ccc(C(=O)N(C)OC)cc5)csc34)CC2)nc1 | 80 |  |  | 
16 | CCc1cnc(N2CCC(COc3ccc(-c4ccc(C(=O)N(C)OC)cc4)nc3)CC2)nc1 | 95 | 319 |  | 
17 | CCc1cnc(N2CCC(Oc3ncnc4c(-c5ccc(C(=O)N(C)OC)cc5)csc34)CC2)nc1 | 82 | 199 |  | 
18 | CON(C)C(=O)c1ccc(-c2ccc(OCC3CCN(C(=O)OC(C)(C)C)CC3)cn2)cc1 | 106 | 171 |  | 
19 | CON(C)C(=O)c1ccc(-c2ccc(OCC3CCN(C(=O)OC(C)C)CC3)cn2)cc1F | 96 | 92 |  | 
20 | CC(C)OC(=O)N1CCC(N(C)c2ncnc3c(-c4ccc(C(=O)NOCc5ccccc5)cc4)csc23)CC1 | 53 |  |  | 
21 | CON(C)C(=O)c1ccc(-c2csc3c(N(C)C4CCN(C(=O)OC(C)(C)C)CC4)ncnc23)cc1F | 87 | 53 |  | 
22 | CCc1cnc(N2CCC(COc3ccc(-c4ccc(C(=O)N(C)OC)c(F)c4)nc3)CC2)nc1 | 100 | 77 | Active | Active
23 | CC(C)(C)OC(=O)N1CCC(COc2ccc(-c3ccc(C(=O)NOCc4ccccc4)cc3)nc2)CC1 | 69 |  |  | 
24 | CON(C)C(=O)c1ccc(-c2csc3c(OC4CCN(C(=O)OC(C)(C)C)CC4)ncnc23)cc1F | 88 | 57 |  | 
